Measurements as given in paper PMC4830977 (Scientific Reports, 2016).
“And” between values parts separate entries of the source, which are not always exact repeats. Equal entries are not always repeated. Where two headings read alike, the source gives them in different places.

What was measured:
α2δ-1-MIDAS^AAA = experiment: [3H]-gabapentin saturation binding to membranes of tsA-201 cells expressing α2δ-1 MIDAS mutant
Description: Cell membrane and DRM fractions were prepared essentially as described previously. Cultured tsA-201 cells were washed twice in ice-cold PBS and then left in ice-cold PBS containing Complete protease inhibitor cocktail (Roche, concentration according to manufacturer’s instructions) for 5 min. Cells were gently washed off the bottom of the flask and pelleted at 2000 × g for 10 min. Pellets were kept on ice if used immediately, or stored at −20 °C until required. For brain membranes, adult male Sprague Dawley rats (200–250 g) were euthanised by CO2 inhalation and then decapitated. The whole brain minus cerebellum was homogenised on ice in a buffer containing the following (in mM): 20 HEPES, pH 7.4, 2 EDTA, EDTA-free protease inhibitor cocktail (Roche, concentration according to manufacturer’s instructions).
For membrane preparation, pellets obtained from cell harvesting, resuspended in ice-cold 10 mM Hepes plus protease inhibitors (pH 7.4), or brain homogenate, were mechanically lysed by 10–15 passages through a 23 gauge needle. Cell debris and non-lysed cells were pelleted for 15 min at 1,000 × g. The supernatant obtained was transferred to a 30 ml thick-walled ultracentrifuge tube (Beckman-Coulter). Membranes were pelleted in an ultracentrifuge (Beckman-Coulter) for 90 min at 60,000 × g, and resuspended as required. Aliquots were used to determine the protein concentration.

TSP4-EGF = experiment: 3H-gabapentin binding to TSP4-EGF alone (control); conditions: control experiment, data not shown
TSP4 = experiment: 3H-gabapentin binding to membranes of tsA-201 cells expressing only TSP4 (control); conditions: 1 experiment in triplicate
Description: Each experiment was carried out in triplicate, and the mean value used for subsequent analysis.
Harvesting of the samples was performed by filtration through GF/B filter papers (Whatman, GE Healthcare) pre-soaked in 0.3% polyethyleneimine solution, in order to reduce non-specific binding to the filter paper. The samples were transferred to the filters by washing the tubes three times with Tris-HCl (100 mM, pH 7.4, Sigma 7–9) using a Brandel Harvester (Brandel). The GF/B filter papers were then cut out and transferred to vials containing 5 ml of scintillant (Liquid scintillant cocktail, Beckman Coulter). Samples were equilibrated for 18 h and then the activity was counted in triplicate in a scintillation counter (Beckman Coulter) for 10 min per sample.

[1] = tested on: synaptogenic domain of TSP2 and α2δ-1; conditions: co-expressed in HEK-293 cells; cited from earlier work
[2] = α2δ-1-MIDAS^AAA + TSP4 with EDTA, n = 3 (Fig. 1F)
[3] = α2δ-1-MIDAS^AAA + TSP4 with Mg2+, n = 3 (Fig. 1F)
[4] = α2δ-1-MIDAS^AAA with EDTA, n = 3 (Fig. 1F)

## NCC1(CC(=O)O)CCCCC1 [[^3H]-gabapentin]
α2δ-1-MIDAS^AAA
  nH: 1.43
α2δ-1-MIDAS^AAA; [2]
  mean Bmax: 0.24 ± 0.02 pmol/mg protein
  nH: 1.49 ± 0.10
α2δ-1-MIDAS^AAA; [3]
  mean Bmax: 0.37 ± 0.06 pmol/mg protein
  nH: 1.45 ± 0.05
α2δ-1-MIDAS^AAA; [4]
  mean Bmax: 0.68 ± 0.12 pmol/mg protein
  nH: 1.33 ± 0.07
α2δ-1-MIDAS^AAA; α2δ-1-MIDAS^AAA with Mg2+, n = 2 (Fig. 1F), read-out: KD, individual values
  Kd: 117 nM and 190 nM
α2δ-1-MIDAS^AAA; α2δ-1-MIDAS^AAA with Mg2+, n = 2, individual values 0.53, 0.38 (Fig. 1F)
  mean Bmax: 0.46 pmol/mg protein
α2δ-1-MIDAS^AAA; α2δ-1 MIDAS^AAA (Fig. 1F)
  binding affinity compared with WT α2δ-1: affinity similar to WT α2δ-1
TSP4-EGF
  binding to TSP4-EGF alone: no ^3H-gabapentin binding
TSP4
  binding to TSP4 alone: no direct binding

## NCC1(CC(=O)O)CCCCC1 [gabapentin]
[1]
  effect on co-immunoprecipitation between synaptogenic domain of TSP2 and α2δ-1: inhibit co-immunoprecipitation
